The values below come from patent publication US8258295B2, “Triazine derivatives, compositions containing such derivatives, and methods of treatment of cancer and autoimmune diseases using such derivatives” (Prometic Biosciences Inc., priority 2007, dated 2012).

Data set [1] has as its system P815 murine mastocytoma cell. The experiment in a line: MTT cytotoxicity on P815. The data set is classed as cell-based. The following applies: Mus musculus. Here is the method: This assay was performed to determine the effect of compounds of the present invention on cell cytotoxicity. Cells were incubated in presence or absence of compounds in their respective conditioned media. After 24 hr or 72 hr incubation, 50 μl of 3-(4,5-dimethyl-2-thiazyl)-2,5-diphenyl-2H-tetrazolium bromide (MTT; 2 mg/ml) was added and further incubated for 4 hr. The supernatant was discarded and 100 μl of dimethylsulfoxide (DMSO) was added. Absorbance was read at 570 nm with a TecanSunrise ELISA plate reader. The control group consisted of cells without compounds and is referred to as 100% of viable cells. IC50 was determined using Prism software.
All compounds have weak effect on cell cytotoxicity. The predictive utility of cell based cytotoxicity assays to assess the potential in vivo anticancer activity of compounds with selected cancer cell lines is well established in the art and the use of whole cells, instead of isolated protein receptors or enzymes, provides a more reliable determination of activity. See, for example, Paull et al. (J. Nat'l Cancer Inst. 81:1088-1092, 1989); Monks et al. (J. Nat'l Cancer Inst. 83:757-766, 1991); Bandes et al. (J. Nat'l Cancer Inst. 86:770-775, 1994); and Kamate et al. (Int'l J. Cancer 100:571-579, 2002).

The nature of data set [2]: PBML cytotoxicity (MTT). The data set is classed as cell-based, human. Conditions: human, resting PBML. From the text:
(§1) PBML were obtained from the peripheral blood of healthy volunteers. Blood was submitted to gradient centrifugation with Lympholyte-Poly media (Cedarlane, Hornby, Canada). The layer containing the mononuclear leukocytes was collected and the cells washed three times in PBS. Cells were then suspended in RPMI (Gibco, Burlington, Canada) supplemented with 10% FBS (Hyclone, Logan USA). Viability was greater than 99% as determined by trypan blue exclusion.
(§2) PBML were resuspended at 2×10^6 cells/ml. 100 μl of PBML (2×10^5 cells) were incubated in a 96-well microtiter plate for 48 hr in the presence or absence of compound. Cells were quiescent or stimulated with concanavalin A (con A; T-cells) or pokeweed mitogen (PWM; B-cells). After incubation, cells were treated with MTT (cytotoxicity) or pulsed with 1 μCi of [^3H]-thymidine (DNA synthesis), [^3H]-uridine (RNA synthesis), or [^3H]-leucine (protein synthesis) for 6 hr. Plates were harvested on a Tomteck and counted on a Microbeta β-counter.

The test system of data set [3] is peripheral blood mononuclear leukocytes (PBML). The experiment in a line: PBML cytotoxicity (MTT). The data set is classed as cell-based, human. Conditions: 48 hr.
Description: as §1, §2

For data set [4] the test system is unchanged. Briefly: PBML DNA synthesis ([3H]-thymidine). The data set is classed as cell-based. The following applies: Homo sapiens, Leukocyte, 48 hr.
Description: as §1, §2

For data set [5] the test system is unchanged. The experiment in a line: PBML protein synthesis ([3H]-leucine). The data set is classed as cell-based. Conditions: Homo sapiens, Leukocyte, 48 hr.
Description: as §1, §2

The subject of data set [6] is oxazolone-induced delayed-type hypersensitivity (DTH). Briefly: Oxazolone-induced delayed-type hypersensitivity (DTH) in mice. In kind it is in vivo. The method, then:
Compounds were tested for their ability to treat oxazolone-induced delayed-type hypersensitivity (DTH) in mice. […] On day 0, day 1, and day 2, mice were treated by intravenous (IV) or oral (PO) administrations of the vehicle (control) or methotrexate (MTX; positive control/IV) or hydrocortisone (positive control/PO) or the compound at concentration lower than or equal to 50 mg/kg or as specified. Mice were challenged with an application of 50 μl of oxazolone on the surface of the right ear (first challenge, day 3; second challenge, day 10). Ear thickness was measured on day 4 to day 7, and on day 11 to 14. Redness and crust formation was also observed. Mice were sacrificed on day 14. TDTH (CD4) cells play an important role in regulating the intensity of the DTH response. Compounds may exert an inhibitory influence on the DTH response through its inhibition of T-cell activation and DNA, RNA, and/or protein synthesis.

The target in data set [7] is TNFα (Homo sapiens, UniProt P01375). Briefly: TNFα-induced apoptosis in WEHI-13VAR cell line. Conditions: for inhibition at 10 µM: 1 × 10^−5 M; for inhibition at 20 µM: 2 × 10^−5 M; for inhibition at 40 µM: 4 × 10^−5 M; for inhibition at 5 µM: 5 × 10^−6 M. The data set is classed as cell-based. The method, then: Effect of compounds on TNFα-induced apoptosis was measured by a standard biological assay using WEHI-13VAR cells. These cells undergo apoptosis when they are incubated in the presence of TNFα and actinomycin D. 2×10^4 WEHI-13VAR cells were incubated in RPMI supplemented with 1% sodium pyruvate and 10% FBS, overnight at 37° C. for cell adherence. The cells were then cultured in the presence of 1 μg/ml of actimomycin D ([…]) and 0.04 nM TNFα with or without compounds at 37° C. After 16 hr to 24 hr, 50 μl of a solution of 2 mg/ml of MIT was added to each well and the plate was then incubated for 4 hr at 37° C. Only viable cells metabolize MTT to form formazan salt, which is detectable by the measurement of absorbance at 570 nm. After the incubation, the plate was inverted to remove medium and dead cells. 150 μDMSO was added to each well to stop the reaction and solubilize the formazan salt. Optical density was read on a Bio-Tek EL 800 UV microplate reader. A decrease in the optical density is direct evidence of cell apoptosis induced by TNFα. Compounds were also compared to the activity of an anti-TNFα neutralizing antibody.

The test system of data set [8] is peripheral blood mononuclear leukocytes (PBML). Briefly: PBML RNA synthesis ([3H]-uridine). Conditions: Homo sapiens, Leukocyte, 48 hr. The data set is classed as cell-based.
Description: as §1, §2

[9] abbreviates: 24 hr culture, read-out: IC50 of 24-hour culture P815.
Where [10] appears, read: 72 hr culture, read-out: IC50 of 72-hour culture P815.
[11] abbreviates: PWM stimulated PBML, read-out: Cytotoxicity PWM.
Where [12] appears, read: con A stimulated PBML, read-out: Cytotoxicity Con A.
The mark [13] stands for this setting: PWM stimulated PBML, read-out: DNA Synthesis PWM.
[14] abbreviates: con A stimulated PBML, read-out: DNA Synthesis Con A.
Setting [15] is: resting PBML, read-out: DNA Synthesis Resting.
The mark [16] stands for this setting: PWM stimulated PBML, read-out: Protein Synthesis PWM.
The mark [17] stands for this setting: con A stimulated PBML, read-out: Protein Synthesis Con A.
The mark [18] stands for this setting: resting PBML, read-out: Protein Synthesis Resting.
Setting [19] is: PWM stimulated PBML, read-out: RNA Synthesis PWM.
Where [20] appears, read: resting PBML, read-out: RNA Synthesis Resting.

Like-named read-outs stand apart in the source and are kept apart here. Where only a bound is given, the exact number is not on record here.

TNFα, sequence (P01375 77-233 limits assumed, species assumed): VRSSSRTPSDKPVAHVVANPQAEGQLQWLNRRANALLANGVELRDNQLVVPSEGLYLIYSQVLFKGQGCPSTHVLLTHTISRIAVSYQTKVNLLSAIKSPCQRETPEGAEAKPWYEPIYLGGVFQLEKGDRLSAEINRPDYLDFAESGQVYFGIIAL

As a reminder, the inhibition is the share of the control response that was lost under treatment. `NCCCCCNc1nc(NCCc2ccc(O)cc2)nc(Nc2ccc(F)cc2)n1` [Compound V]: the IC50 in data set [1] (setting [9]) is 23.5 µM; in data set [1] (setting [10]), 7.5 µM; in data set [3] (setting [11]), above 10 µM; in data set [3] (setting [12]), above 10 µM; in data set [4] (setting [13]), 6.1 µM; in data set [4] (setting [14]), 8 µM. The IC50 in data set [4] (setting [15]) was above 10 µM; in data set [5] (setting [16]), above 10 µM; in data set [5] (setting [17]), above 10 µM; in data set [5] (setting [18]), above 10 µM; in data set [8] (setting [19]), 4.5 µM; in data set [8] (con A stimulated PBML, read-out: RNA Synthesis Con A), 6 µM. Besides, the IC50 in data set [8] (setting [20]) was found to be 7.4 µM. The compound also showed an IC50 at 48 h in data set [2] above 10 µM. The “inflammation (ear thickness) after DTH” value in data set [6] (oral 50 mg/kg, FIG. 15) is “significant reduction of the inflammation”. This compound returned an inhibition at 10 µM in data set [7] of 22.2%. In data set [7], this compound returned an inhibition at 20 µM of 51.9%. For the same compound, in data set [7], the inhibition at 40 µM is 75.9%. For the same compound, the inhibition at 5 µM in data set [7] was determined as 8.2%.

For the compound `NCCCCCNc1nc(NCCc2ccc(S(N)(=O)=O)cc2)nc(Nc2cccc(F)c2)n1` [Compound II], the IC50 is 66.5 µM in data set [1] (setting [9]); 1.6 µM in data set [1] (setting [10]); above 10 µM in data set [3] (setting [11]); above 10 µM in data set [3] (setting [12]); 1.7 µM in data set [4] (setting [13]); 2.9 µM in data set [4] (setting [14]). In addition, the IC50 in data set [4] (setting [15]) is above 10 µM; in data set [5] (setting [16]) it was 5.7 µM; in data set [5] (setting [17]), 6.4 µM; in data set [5] (setting [18]) it was above 10 µM; in data set [8] (setting [19]), 1.1 µM; in data set [8] (setting [20]), 5.8 µM. Further, the IC50 at 48 h in data set [2] is above 10 µM. Further, the “inflammation (ear thickness) after DTH” value was “significant reduction of the inflammation” in data set [6] (IV 5 mg/kg, first challenge of oxazolone) and “significant reduction of the inflammation” in data set [6] (IV 5 mg/kg, second challenge of oxazolone). The compound also displayed an inhibition at 10 µM in data set [7] of 64.2%. The same compound gave an inhibition at 20 µM in data set [7] of 83.8%. The compound further showed an inhibition at 40 µM in data set [7] of 78.9%. In data set [7], this compound showed an inhibition at 5 µM of 45.2%.

With `NCCCCCNc1nc(NCCc2ccc(O)cc2)nc(Nc2cccc(F)c2)n1` [Compound I], the IC50 in data set [1] (setting [9]) was 34 µM; in data set [1] (setting [10]), 4 µM; in data set [3] (setting [11]), above 10 µM; in data set [3] (setting [12]) it was above 10 µM; in data set [4] (setting [13]) it was 2.8 µM; in data set [4] (setting [14]), 3.7 µM. Besides, the IC50 in data set [4] (setting [15]) was above 10 µM; in data set [5] (setting [16]), 9.9 µM; in data set [5] (setting [17]), 4.4 µM; in data set [5] (setting [18]), above 10 µM; in data set [8] (setting [19]) it was 2.2 µM; in data set [8] (setting [20]) it was 6.8 µM. In addition, the IC50 at 48 h in data set [2] was above 10 µM. For the same compound, the “inflammation (ear thickness) after DTH” value is on record as “significant reduction of the inflammation” in data set [6] (IV 25 mg/kg, first challenge of oxazolone) and “significant reduction of the inflammation” in data set [6] (IV 25 mg/kg, second challenge of oxazolone). Further, the inhibition at 10 µM in data set [7] is 33.1%. Also, at 20 µM the inhibition in data set [7] was 58.9%. Moreover, at 5 µM the inhibition in data set [7] was 17.9%.
